Reference: patent US10233201B2, “Class of HDAC inhibitors expands the renal progenitor cells population and improves the rate of recovery from acute kidney injury” (University of Pittsburgh—Of the Commonwealth System of …, priority 2012, dated 2019)

Legend:
[1] = tested on: conditionally-immortalized mouse podocyte cell line; assay: Podocyte cytotoxicity assay (Cell Titer-Blue); conditions: 72 hours, up to 30 μM
[2] = tested on: proximal convoluted tubule cells; assay: Gentamycin-induced AKI in zebrafish larvae: renal cell proliferation (EdU); assay type: in vivo; conditions: 4 μM added 2 days post injection of gentamicin; larvae at 5 days post injection
Method: FIG. 42A is a graph showing the results of an AKI model using gentamycin-induced injury. AKI is generated as per a recent publication, Cianciolo Cosenitino, C., et al. ((2010) Intravenous microinjections of zebrafish larvae to study acute kidney injury. JoVE August 4 (42), pii: 2079. doi: 10.3791/2079). Four micromolar m4PTB (UPHD-00025) was added to the zebrafish E3 media in 0.5% DMSO at 2 days post injection of gentamicin and the larvae are scored daily for four days (6 days post injection) as alive or dead, with the final data tallied on day 6 post injection FIG. 42B.
Proliferation of renal cells was examined post AKI for m4PTB in zebrafish larvae (FIG. 43). AKI is generated as above with gentamycin, essentially as described in Example 11. Four μM m4PTB was added 2 days post injection of gentamicin. Zebrafish larvae at 5 days post injection were treated for 1 hour with the thymidine analogue EdU (10 milimolar), which incorporates into dividing (proliferating cells) while the larvae are in the zebrafish E3 media. The larvae where then fixed and processed for histology to count the number of proliferating cells in the proximal convulted tubule (as marked by the antibody 3G8). The number of proliferating cells was divided by the total number of cells in the proximal convoluted tubule to generate the percent of proliferation also known as the proliferation index as shown in FIG. 43.

| Structure (SMILES) | podocyte viability (% of DMSO control) [1] | renal cell proliferation (proliferation index) [2] |
| --- | --- | --- |
| O=C(O)CCCSc1ccccc1 [PTBA, 4-(phenylthio)butanoic acid] | ≥ 50% |  |
| COC(=O)CCCSc1ccccc1 [UPHD-00025, methyl 4-(phenylsulfanyl) butanoate] |  | significantly increased |
